Assay results as given in ChEMBL document CHEMBL4350980, “Synthesis and structure-activity relationships of small-molecular di-basic esters, amides and carbamates as flaviviral protease inhibitors” (Eur J Med Chem, 2019).
The source made the active and inactive calls. The rule behind the calls is not given here.

Legend:
[1] = molecular target: Genome polyprotein (dengue virus type 2) (UniProt P29990); test: (§1) Inhibition of dengue virus serotype 2 His-tagged NS2B cofactor domain-NS3 protease expressed in Escherichia coli at 1 mM using 2-Abz-Nle-Lys-Arg-Arg-Ser-(3-NO2)-Tyr-NH2 as substrate preincubated with enzyme for 15 mins followed by substrate addition measured for every 1 sec for 15 mins by fluorescence plate reader based HPLC analysis relative to control
Prothrombin [2] = molecular target: T1, Prothrombin (Homo sapiens, UniProt P00734); test: Inhibition of thrombin (unknown origin) at 500 uM using Boc-Val-Pro-Arg-AMC as substrate preincubated with enzyme for 15 mins followed by addition of substrate by fluorescence plate reader analysis relative to control
[3] = molecular target: Genome polyprotein (West Nile virus) (UniProt P06935); test: as §1, with “West Nile” for “dengue”, “virus” for “virus serotype 2”, “2-Abz-Gly-Leu-Lys-Arg-Gly-Gly-(3-NO2)-Tyr-NH2” for “2-Abz-Nle-Lys-Arg-Arg-Ser-(3-NO2)-Tyr-NH2”, “microplate” for “plate”
Trypsin [4] = molecular target: T2, Trypsin (Homo sapiens, UniProt P07477+P07478+P35030); test: Inhibition of trypsin (unknown origin) at 1 mM using Boc-Val-Pro-Arg-AMC as substrate preincubated with enzyme for 15 mins followed by addition of substrate by fluorescence plate reader analysis relative to control; type: protein assay
[5] = molecular target: Genome polyprotein (West Nile virus) (UniProt P06935); test: Inhibition of West Nile virus His-tagged NS2B cofactor domain-NS3 protease expressed in Escherichia coli at 50 uM using 2-Abz-Gly-Leu-Lys-Arg-Gly-Gly-(3-NO2)-Tyr-NH2 as substrate preincubated with enzyme for 15 mins followed by substrate addition measured for every 1 sec for 15 mins by fluorescence microplate reader based HPLC analysis relative to control
Trypsin [6] = molecular target: T2, Trypsin; test: Inhibition of trypsin (unknown origin) at 50 uM using Boc-Val-Pro-Arg-AMC as substrate preincubated with enzyme for 15 mins followed by addition of substrate by fluorescence plate reader analysis relative to control; type: protein assay
Prothrombin [7] = molecular target: T1, Prothrombin; test: Inhibition of thrombin (unknown origin) at 25 uM using Boc-Val-Pro-Arg-AMC as substrate preincubated with enzyme for 15 mins followed by addition of substrate by fluorescence plate reader analysis relative to control
[8] = molecular target: Genome polyprotein (dengue virus type 2) (UniProt P29990); test: as §1, with “50 uM” for “1 mM”
Trypsin [9] = molecular target: T2, Trypsin; test: Inhibition of trypsin (unknown origin) using Boc-Val-Pro-Arg-AMC as substrate preincubated with enzyme for 15 mins followed by addition of substrate by fluorescence plate reader analysis; type: protein assay
[10] = molecular target: Genome polyprotein (dengue virus type 2) (UniProt P29990); test: Reversible covalent binding affinity at dengue virus serotype 2 His-tagged NS2B cofactor domain-NS3 protease expressed in Escherichia coli assessed as acyl-enzyme adduct formation at 100 uM incubated for 5 to 24 hrs by ESI-MS analysis
[11] = molecular target: Genome polyprotein (dengue virus type 2) (UniProt P29990); test: (§2) Time-dependent inhibition of dengue virus serotype 2 His-tagged NS2B cofactor domain-NS3 protease expressed in Escherichia coli at 50 uM using 2-Abz-Nle-Lys-Arg-Arg-Ser-(3-NO2)-Tyr-NH2 as substrate preincubated with enzyme for 20 to 40 mins followed by substrate addition measured for every 1 sec for 15 mins by fluorescence plate reader based HPLC analysis
[12] = Stability of compound in phosphate buffer at pH 7.5 to 11; type: physicochemical
[13] = Stability of compound in TRIS assay buffer at pH 7.5 to 9; type: physicochemical
Prothrombin [14] = molecular target: T1, Prothrombin; test: Inhibition of thrombin (unknown origin) using Boc-Val-Pro-Arg-AMC as substrate preincubated with enzyme for 15 mins followed by addition of substrate by fluorescence plate reader analysis
[15] = molecular target: Genome polyprotein (dengue virus type 2) (UniProt P29990); test: Reversible covalent binding affinity at dengue virus serotype 2 His-tagged NS2B cofactor domain-NS3 protease expressed in Escherichia coli assessed as acyl-enzyme adduct formation at 100 uM incubated for 2 hrs by ESI-MS analysis
[16] = molecular target: Genome polyprotein (dengue virus type 2) (UniProt P29990); test: Reversible covalent binding affinity at dengue virus serotype 2 His-tagged NS2B cofactor domain-NS3 protease expressed in Escherichia coli assessed as acyl-enzyme adduct formation at 100 uM incubated for 24 hrs by ESI-MS analysis
dengue virus type 2 = test: Reversible covalent binding affinity at dengue virus serotype 2 His-tagged NS2B cofactor domain-NS3 protease S135A mutant expressed in Escherichia coli assessed as acyl-enzyme adduct formation at 100 uM incubated for 24 hrs by ESI-MS analysis
[17] = molecular target: Genome polyprotein (dengue virus type 2) (UniProt P29990); test: Reversible covalent inhibition of dengue virus serotype 2 His-tagged NS2B catalytic domain-NS3 protease expressed in Escherichia coli at 100 uM using 2-Abz-Nle-Lys-Arg-Arg-Ser-(3-NO2)-Tyr-NH2 as substrate preincubated with enzyme for 1 hr followed by dilution prior to substrate addition measured at 120 mins after dilution by fluorescence plate reader based HPLC analysis
[18] = Stability of compound in TRIS buffer at pH 7.5; type: physicochemical
[19] = Stability of compound in phosphate buffer at pH 9; type: physicochemical
[20] = molecular target: Genome polyprotein (dengue virus type 2) (UniProt P29990); test: Reversible covalent binding affinity at dengue virus serotype 2 His-tagged NS2B cofactor domain-NS3 protease expressed in Escherichia coli assessed as acyl-enzyme adduct formation at 100 uM incubated for 5 to 30 mins by ESI-MS analysis
Genome polyprotein = Genome polyprotein (dengue virus type 2, UniProt P29990); test: as §1, with “coli” for “coli at 1 mM”, “analysis” for “analysis relative to control”
[21] = molecular target: Genome polyprotein (dengue virus type 2) (UniProt P29990); test: Inhibition of dengue virus serotype 2 His-tagged NS2B catalytic domain-NS3 protease expressed in Escherichia coli at 100 uM using 2-Abz-Nle-Lys-Arg-Arg-Ser-(3-NO2)-Tyr-NH2 as substrate preincubated with enzyme for 1 hr followed by substrate addition measured for every 1 sec for 15 mins by fluorescence plate reader based HPLC analysis relative to control
[22] = molecular target: Genome polyprotein (dengue virus type 2) (UniProt P29990); test: Reversible covalent binding affinity at dengue virus serotype 2 His-tagged NS2B cofactor domain-NS3 protease expressed in Escherichia coli assessed as acyl-enzyme adduct formation at 100 uM incubated for 20 hrs by ESI-MS analysis
[23] = Stability of compound in TRIS buffer assessed as half life at pH 9; type: physicochemical
[24] = molecular target: Genome polyprotein (dengue virus type 2) (UniProt P29990); test: Reversible covalent inhibition of dengue virus serotype 2 His-tagged NS2B catalytic domain-NS3 protease expressed in Escherichia coli using 2-Abz-Nle-Lys-Arg-Arg-Ser-(3-NO2)-Tyr-NH2 as substrate preincubated initially at 100 uM with enzyme for 1 hr followed by dilution with assay buffer to achieve compound concentration of 3.33 uM prior to substrate addition measured immediately after dilution by fluorescence plate reader based HPLC analysis
[25] = molecular target: Genome polyprotein (dengue virus type 2) (UniProt P29990); test: Reversible covalent inhibition of dengue virus serotype 2 His-tagged NS2B catalytic domain-NS3 protease expressed in Escherichia coli using 2-Abz-Nle-Lys-Arg-Arg-Ser-(3-NO2)-Tyr-NH2 as substrate preincubated initially at 100 uM with enzyme for 1 hr followed by dilution with assay buffer to achieve compound concentration of 3.33 uM prior to substrate addition measured after dilution over time by fluorescence plate reader based HPLC analysis
[26] = Stability of compound in phosphate buffer assessed as half life at pH 11; type: physicochemical
[27] = molecular target: Genome polyprotein (dengue virus type 2) (UniProt P29990); test: as §2, with “200” for “50”

Sequence of Genome polyprotein (West Nile virus) (P06935 whole entry, the tested form may be a part): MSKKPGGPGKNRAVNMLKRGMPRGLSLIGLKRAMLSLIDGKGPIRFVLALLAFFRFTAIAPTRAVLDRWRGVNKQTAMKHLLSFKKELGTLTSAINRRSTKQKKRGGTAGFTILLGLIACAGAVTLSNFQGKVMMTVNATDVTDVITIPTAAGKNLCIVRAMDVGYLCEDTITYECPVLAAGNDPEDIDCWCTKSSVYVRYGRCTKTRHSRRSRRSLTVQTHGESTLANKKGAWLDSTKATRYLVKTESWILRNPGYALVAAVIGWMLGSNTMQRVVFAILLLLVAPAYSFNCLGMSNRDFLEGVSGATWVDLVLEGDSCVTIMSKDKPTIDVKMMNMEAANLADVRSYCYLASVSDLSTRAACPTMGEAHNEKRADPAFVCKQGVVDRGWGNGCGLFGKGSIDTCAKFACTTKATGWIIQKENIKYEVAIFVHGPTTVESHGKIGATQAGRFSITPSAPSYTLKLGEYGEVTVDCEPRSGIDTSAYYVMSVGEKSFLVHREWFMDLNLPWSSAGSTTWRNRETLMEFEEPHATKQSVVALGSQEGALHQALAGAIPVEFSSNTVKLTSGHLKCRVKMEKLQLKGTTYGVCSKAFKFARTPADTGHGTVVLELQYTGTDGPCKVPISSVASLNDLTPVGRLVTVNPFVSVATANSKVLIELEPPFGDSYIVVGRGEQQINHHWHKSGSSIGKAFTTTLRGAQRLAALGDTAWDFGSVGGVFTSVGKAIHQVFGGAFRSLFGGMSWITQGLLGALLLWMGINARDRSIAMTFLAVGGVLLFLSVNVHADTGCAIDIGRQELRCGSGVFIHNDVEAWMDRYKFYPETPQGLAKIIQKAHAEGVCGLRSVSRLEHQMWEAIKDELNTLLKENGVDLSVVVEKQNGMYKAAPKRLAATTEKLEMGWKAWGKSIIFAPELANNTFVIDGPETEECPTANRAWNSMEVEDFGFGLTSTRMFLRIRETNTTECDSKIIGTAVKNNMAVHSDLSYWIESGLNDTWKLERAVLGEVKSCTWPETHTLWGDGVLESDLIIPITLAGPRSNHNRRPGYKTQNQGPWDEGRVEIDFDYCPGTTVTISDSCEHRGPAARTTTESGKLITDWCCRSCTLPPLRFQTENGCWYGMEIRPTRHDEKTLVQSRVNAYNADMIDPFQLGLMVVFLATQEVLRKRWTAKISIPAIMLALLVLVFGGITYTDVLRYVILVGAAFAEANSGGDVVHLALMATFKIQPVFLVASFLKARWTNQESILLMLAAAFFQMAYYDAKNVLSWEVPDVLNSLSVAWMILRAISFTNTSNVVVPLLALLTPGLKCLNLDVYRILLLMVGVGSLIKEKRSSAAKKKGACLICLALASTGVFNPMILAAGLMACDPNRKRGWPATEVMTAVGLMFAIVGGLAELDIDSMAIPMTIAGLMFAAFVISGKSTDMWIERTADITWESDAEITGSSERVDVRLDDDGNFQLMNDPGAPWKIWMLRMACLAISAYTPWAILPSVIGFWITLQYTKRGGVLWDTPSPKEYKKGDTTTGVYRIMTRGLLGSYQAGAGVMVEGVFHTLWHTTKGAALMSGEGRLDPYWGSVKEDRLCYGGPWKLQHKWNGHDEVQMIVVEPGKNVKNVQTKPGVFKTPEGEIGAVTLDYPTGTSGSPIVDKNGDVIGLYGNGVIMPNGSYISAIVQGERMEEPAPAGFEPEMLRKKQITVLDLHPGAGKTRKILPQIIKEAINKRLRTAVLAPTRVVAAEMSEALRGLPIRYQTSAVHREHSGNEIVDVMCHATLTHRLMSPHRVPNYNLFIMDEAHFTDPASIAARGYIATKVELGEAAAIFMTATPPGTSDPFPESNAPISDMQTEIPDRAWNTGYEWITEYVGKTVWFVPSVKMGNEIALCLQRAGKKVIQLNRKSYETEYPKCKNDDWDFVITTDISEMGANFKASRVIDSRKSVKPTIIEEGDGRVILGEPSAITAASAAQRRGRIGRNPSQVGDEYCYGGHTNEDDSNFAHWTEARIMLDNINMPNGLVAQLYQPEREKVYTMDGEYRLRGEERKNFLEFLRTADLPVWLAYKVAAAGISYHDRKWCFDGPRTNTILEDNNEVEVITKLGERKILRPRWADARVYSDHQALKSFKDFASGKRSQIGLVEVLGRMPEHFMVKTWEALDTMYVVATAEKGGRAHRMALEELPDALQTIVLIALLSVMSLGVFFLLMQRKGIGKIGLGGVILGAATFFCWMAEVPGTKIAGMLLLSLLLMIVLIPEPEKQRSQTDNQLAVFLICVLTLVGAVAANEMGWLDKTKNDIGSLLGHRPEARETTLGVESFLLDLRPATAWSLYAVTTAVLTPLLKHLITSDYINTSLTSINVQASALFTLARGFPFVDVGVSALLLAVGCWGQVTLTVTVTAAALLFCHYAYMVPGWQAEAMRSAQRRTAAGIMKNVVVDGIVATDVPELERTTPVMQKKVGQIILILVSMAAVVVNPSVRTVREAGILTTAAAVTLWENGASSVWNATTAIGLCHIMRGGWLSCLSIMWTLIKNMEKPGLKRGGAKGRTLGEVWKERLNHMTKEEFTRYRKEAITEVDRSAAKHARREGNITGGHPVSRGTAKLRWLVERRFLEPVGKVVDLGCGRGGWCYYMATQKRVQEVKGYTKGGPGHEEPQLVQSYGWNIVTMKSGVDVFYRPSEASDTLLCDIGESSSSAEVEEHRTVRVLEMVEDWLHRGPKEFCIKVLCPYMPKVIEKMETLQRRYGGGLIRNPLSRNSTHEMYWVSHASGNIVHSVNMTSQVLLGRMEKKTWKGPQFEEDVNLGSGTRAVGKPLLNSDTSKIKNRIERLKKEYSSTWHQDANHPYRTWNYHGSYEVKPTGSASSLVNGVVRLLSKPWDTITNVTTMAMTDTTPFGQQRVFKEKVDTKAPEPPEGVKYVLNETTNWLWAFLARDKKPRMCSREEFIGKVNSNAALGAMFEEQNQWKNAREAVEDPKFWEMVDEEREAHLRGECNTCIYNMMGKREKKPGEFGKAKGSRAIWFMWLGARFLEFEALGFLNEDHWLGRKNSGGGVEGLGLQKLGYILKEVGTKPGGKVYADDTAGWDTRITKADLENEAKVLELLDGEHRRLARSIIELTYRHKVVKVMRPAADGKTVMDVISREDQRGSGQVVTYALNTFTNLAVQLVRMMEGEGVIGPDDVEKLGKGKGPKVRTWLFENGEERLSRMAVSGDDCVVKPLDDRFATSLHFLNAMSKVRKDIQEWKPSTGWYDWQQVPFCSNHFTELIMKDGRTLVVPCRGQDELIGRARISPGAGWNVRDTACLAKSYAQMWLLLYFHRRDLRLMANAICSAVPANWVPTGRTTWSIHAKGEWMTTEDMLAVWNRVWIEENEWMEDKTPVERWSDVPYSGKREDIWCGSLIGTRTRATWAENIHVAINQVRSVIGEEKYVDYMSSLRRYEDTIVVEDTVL

Row | SMILES | inhibition [1] [%] | inhibition (Prothrombin [2]) [%] | inhibition [3] [%] | inhibition (Trypsin [4]) [%] | inhibition [5] [%] | inhibition (Trypsin [6]) [%] | inhibition (Prothrombin [7]) [%] | inhibition [8] [%] | IC50 (Trypsin [9]) [µM] | further results
1 | CN(C(=O)Oc1ccc(CN)cc1)c1ccc(CN)cc1 | 31.3 | 12.2 | 62.9 | 43.9 | – | – | – | – | – | –
2 | N=C(N)NCCCCC(=O)Oc1ccc(NC(=N)N)cc1 | – | – | – | – | < 5 | 65.9 | 72.5 | 4.6 | – | –
3 | CN(C)C(=O)COC(=O)Cc1ccc(OC(=O)c2ccc(NC(=N)N)cc2)cc1 [CAMOSTAT] | – | – | – | – | 12.6 | 100 | 94 | 19.6 | 0.0035 | –
4 | CN(C(=O)Oc1ccc(N)cc1)c1ccc(N)cc1 | 29.8 | 72.7 | 68 | 95.9 | – | – | – | – | – | –
5 | Nc1ccc(NC(=O)Oc2ccc(N)cc2)cc1 | 33.7 | 83.3 | 72.8 | 99.2 | – | – | – | – | – | –
6 | CN(C(=O)Oc1ccc(CN)cc1)c1ccc(N)cc1 | 22.9 | 46.9 | 59.3 | 95.6 | – | – | – | – | – | –
7 | N=C(N)Nc1ccc(NC(=O)c2ccc(NC(=N)N)cc2)cc1 | – | – | – | – | 17.9 | 87.2 | 23.9 | 23.2 | – | Activity [10]: inactive; TDI [11]: inactive; Stability [12]: Stable; Stability [13]: Stable
8 | CN(C)C(=O)Oc1cc(NC(=N)N)ccc1NC(=O)c1ccc(NC(=N)N)cc1 | 20.2 | 67.8 | 23.9 | 99.2 | – | – | – | – | – | –
9 | CN(C)C(=O)Oc1ccc(NC(=N)N)cc1C(=O)Nc1ccc(CN)cc1 | 56 | 24.3 | 76.1 | 19.3 | – | – | – | – | – | –
10 | N=C(N)Nc1ccc(OC(=O)c2ccc(N)cc2)cc1 | – | – | – | – | < 5 | 101 | 76.7 | 45.4 | 0.00278 | IC50 (Prothrombin [14]): 17.6 µM; TDI [11]: Active; Activity [15]: inactive; Activity [16]: Active; Activity (dengue virus type 2): inactive
11 | N=C(N)Nc1ccc(OC(=O)c2ccc(NC(=N)N)cc2)cc1 | – | – | – | – | 29.8 | 100 | 99 | 98.1 | 0.00135 | inhibition [17]: inactive; Stability [18]: Stable; Stability [19]: Stable; Activity [20]: Active; IC50 (Prothrombin [14]): 4.08 µM; IC50 (Genome polyprotein): 14.4 µM; TDI [11]: Active; inhibition [21]: 100%; Activity [22]: inactive; half-life [23]: 16.8 min; inhibition [24]: Active; inhibition [25]: inactive; Activity (dengue virus type 2): inactive; half-life [26]: 17.8 min
12 | N=C(N)Nc1ccc(C(=O)Oc2ccc(N)cc2)cc1 | – | – | – | – | < 5 | 102 | 97.1 | 8.8 | 0.028 | IC50 (Prothrombin [14]): 0.8 µM; Stability [12]: Stable; Stability [13]: Stable
13 | N=C(N)Nc1ccc(C(=O)Oc2cccc(NC(=N)N)c2)cc1 | – | – | – | – | 17.5 | 100 | 100 | 51.3 | – | –
14 | N=C(N)NCCCC(=O)Oc1ccc(NC(=N)N)cc1 | – | – | – | – | < 5 | 18.3 | 13.2 | 4.2 | – | –
15 | N=C(N)Nc1ccc(C(=O)Nc2cccc(NC(=N)N)c2)cc1 | – | – | – | – | < 5 | 94.6 | 16.4 | 36.8 | 23.9 | –
16 | N=C(N)Nc1ccc(C(=O)Oc2ccc(CN)cc2)cc1 | – | – | – | – | 36.5 | 101 | 92.5 | 40.1 | 0.00156 | IC50 (Prothrombin [14]): 0.53 µM; TDI [11]: Active
17 | CN(C)C(=O)Oc1cc(NC(=N)N)ccc1C(=O)Nc1ccc(CN)cc1 | 74.4 | 12.4 | 73.3 | 43.7 | – | – | – | – | – | –
18 | N=C(N)NCCCOC(=O)c1ccc(NC(=N)N)cc1 | – | – | – | – | < 5 | 78.9 | 22.8 | 56.8 | 9.84 | Stability [12]: Stable; Stability [13]: Stable
19 | N=C(N)NCCCCOC(=O)c1ccc(NC(=N)N)cc1 | – | – | – | – | 17.1 | 84 | 27.3 | 49 | 8.27 | –
20 | N=C(N)NCc1ccc(NC(=O)Oc2ccc(N)cc2)cc1 | 60.8 | 44.4 | 68.8 | 98.4 | – | – | – | – | – | –
21 | N=C(N)Nc1ccc(NC(=O)Oc2ccc(N)cc2)cc1 | 52 | 12.1 | 61.9 | 101 | 61.9 | 101 | 12.1 | 52 | 46.3 | Activity [10]: inactive; TDI [27]: inactive
